Where a name gives a salt, the structure may show the parent alone.
What was measured:
[1] = Cell cytotoxicity test: protection of HT22 cells against glutamate toxicity (EC50) and cytotoxicity of the compounds (CC50), MTT; format: cell-based, mouse; conditions: mouse, HT22 cells (mouse hippocampal neuron)
Description: (§1) HT22 cells (mouse hippocampal neuron, Salk Institute and KRIBB) were plated in a 96-well plate at a density of 3×10^3 cells/well for 16 hrs before treatment. The cells were treated with five millimolar glutamate and various concentrations of the inventive compounds and incubated for 24 hrs in a growth media (DMEM with 10% FBS and 1% penicillin streptomycin). Then, the cells were treated with 3-(4,5-dimethylthiazol-2-yl)-2,5-diphenyltetrazolium bromide (MTT, Sigma®) for 4 hrs and absorbance of each well was measured with a plate reader at a wavelength of 450 nm. [Da-Qing, et. al., Anti-oxidant and anti-inflammatory activities of macelignan in murine hippocampal cell line and primary culture of rat microglia cells, BBRC, 2005, 331, 1264-1269].
(§2) In Table 1, EC50 is neuroprotective effect against glutamate toxicity and CC50 is cytotoxicity of the compounds. The EC50 values were statistically analyzed using Prizm® (GraphPad Software Inc., San Diego, Calif., USA).

[2] = tested on: HT22 cells (mouse hippocampal neuron); test: as above; format: cell-based; conditions: Mus musculus, HT-22, five millimolar glutamate, 24 hrs, read-out: EC50 (neuroprotective effect against glutamate toxicity)
Description: as §1, §2

SMILES | CC50 at 24 h [1] | EC50 [2]
Nc1ccc(Nc2cc3c(cc2O)[C@]24CCCC[C@@H]2[C@H](C3)NCC4)cc1 [Example 32, (+)-2-(4-Aminophenyamino)-3-hydroxymorphinan TFA salt] | 14.1 µM | 0.0431 µM
Oc1cc2c(cc1Nc1ccc(F)cc1)C[C@@H]1NCC[C@]23CCCC[C@H]13 [Example 29, (+)-2-(4-Fluorophenylamino)-3-hydroxymorphinan TFA salt] | 19.9 µM | 0.0335 µM
CSc1cc2c(cc1O)[C@]13CCCC[C@@H]1[C@H](C2)NCC3 [Example 72, (+)-3-Hydroxy-2-methylthiomorphinan TFA salt] | 77.3 µM | 2.21 µM
CCN(C)c1cc2c(cc1O)[C@]13CCCC[C@@H]1[C@H](C2)NCC3 [Example 103, (+)-2-(Ethylmethylamino)-3-hydroxymorphinan TFA salt] | > 100 µM | 1.59 µM
Oc1cc2c(cc1Nc1ccccc1N1CCCCC1)C[C@@H]1NCC[C@]23CCCC[C@H]13 [Example 128, (+)-3-Hydroxy-2-(2-(piperidin-1-yl)phenylamino)morphinan TFA salt] | 1.6 µM | 0.0356 µM
COC(=O)c1ccccc1Nc1cc2c(cc1O)[C@]13CCCC[C@@H]1[C@H](C2)NCC3 [Example 108, (+)-3-Hydroxy-2-(2-(methoxycarbonyl)phenylamino)morphinan TFA salt] | > 100 µM | 7.96 µM
O=C(Nc1ccccc1)Nc1ccccc1Nc1cc2c(cc1O)[C@]13CCCC[C@@H]1[C@H](C2)NCC3 [Example 122, (+)-3-Hydroxy-2-(2-(phenylureido)phenylamino)morphinan TFA salt] | 33.8 µM | 3.7 µM
Oc1ccc(F)cc1Nc1cc2c(cc1O)[C@]13CCCC[C@@H]1[C@H](C2)NCC3 [Example 56, (+)-2-(5-Fluoro-2-hydroxyphenylamino)-3-hydroxymorphinan TFA salt] | 12.6 µM | 0.354 µM
Oc1cc2c(cc1-c1ccc(Cl)cc1Cl)C[C@@H]1NCC[C@]23CCCC[C@H]13 [Example 76, (+)-2-(2,4-Dichlorophenyl)-3-hydroxymorphinan TFA salt] | 4.4 µM | 2.97 µM
Oc1cc2c(cc1N1CCOCC1)C[C@@H]1NCC[C@]23CCCC[C@H]13 [Example 86, (+)-3-Hydroxy-2-morpholinomorphinan TFA salt] | > 100 µM | 1.55 µM
CCNc1cc2c(cc1O)[C@]13CCCC[C@@H]1[C@H](C2)NCC3 [Example 23, (+)-2-Ethylamino-3-hydroxymorphinan TFA salt] | 49.1 µM | 1.1 µM
N#Cc1cccc(-c2cc3c(cc2O)[C@]24CCCC[C@@H]2[C@H](C3)NCC4)c1 [Example 78, (+)-2-(3-Cyanophenyl)-3-hydroxymorphinan TFA salt] | 21 µM | 4.6 µM
Nc1ccccc1Nc1cc2c(cc1O)[C@]13CCCC[C@@H]1[C@H](C2)NCC3 [Example 106, (+)-2-(2-Aminophenylamino)-3-hydroxymorphinan TFA salt] | 21.8 µM | 0.0366 µM
OCCNc1cc2c(cc1O)[C@]13CCCC[C@@H]1[C@H](C2)NCC3 [Example 100, (+)-3-Hydroxy-2-(2-hydroxyethylamino)morphinan TFA salt] | > 100 µM | 11.7 µM
COc1ccc(Nc2cc3c(cc2O)[C@]24CCCC[C@@H]2[C@H](C3)NCC4)cc1OC [Example 63, (+)-2-(3,4-Dimethoxyphenylamino)-3-hydroxymorphinan TFA salt] | 10.1 µM | 0.0289 µM
CC1(c2cc3c(cc2O)[C@]24CCCC[C@@H]2[C@H](C3)NCC4)CCCCC1 [Example 105, (+)-3-Hydroxy-2-(1-methylcyclohexyl)morphinan TFA salt] | 2.24 µM | 0.594 µM
CCCCS(=O)(=O)Nc1ccccc1Nc1cc2c(cc1O)[C@]13CCCC[C@@H]1[C@H](C2)NCC3 [Example 112, (+)-2-(2-(Butanesulfonamido)phenylamino)-3-hydroxymorphinan TFA salt] | 20 µM | 0.0556 µM
CCCCNC(=O)Nc1ccccc1Nc1cc2c(cc1O)[C@]13CCCC[C@@H]1[C@H](C2)NCC3 [Example 121, (+)-2-(2-(Butylureido)phenylamino)-3-hydroxymorphinan TFA salt] | 23.1 µM | > 100 µM
Oc1cc2c(cc1Nc1ccccn1)C[C@@H]1NCC[C@]23CCCC[C@H]13 [Example 34, (+)-3-Hydroxy-2-(pyridin-2-ylamino)morphinan 2TFA salt] | 41.5 µM | 2.34 µM
CC(C)COC(=O)Nc1ccccc1Nc1cc2c(cc1O)[C@]13CCCC[C@@H]1[C@H](C2)NCC3 [Example 119, (+)-3-Hydroxy-2-(2-(isobutyloxycarbonylamino)phenylamino)morphinan TFA salt] | 8.7 µM | 0.211 µM
CC(Nc1cc2c(cc1O)[C@]13CCCC[C@@H]1[C@H](C2)NCC3)c1ccccc1 (stereo partly drawn) [Example 91, (+)-3-Hydroxy-2-(1-phenylethylamino)morphinan TFA salt] | 15 µM | 0.0813 µM
CC(C)c1ccc(Nc2cc3c(cc2O)[C@]24CCCC[C@@H]2[C@H](C3)NCC4)cc1 [Example 54, (+)-3-Hydroxy-2-(4-isopropylphenylamino)morphinan TFA salt] | 1.5 µM | 0.0598 µM
CCN(C)c1ccccc1Nc1cc2c(cc1O)[C@]13CCCC[C@@H]1[C@H](C2)NCC3 [Example 131, (+)-2-(2-(Ethyl(methyl)amino)phenylamino)-3-hydroxymorphinan TFA salt] | 1.5 µM | 0.0177 µM
Cc1ccc(Nc2cc3c(cc2O)[C@]24CCCC[C@@H]2[C@H](C3)NCC4)cc1 [Example 28, (+)-3-Hydroxy-2-(4-methylphenylamino)morphinan TFA salt] | 1.84 µM | 0.0325 µM
CN1CCN(c2cc3c(cc2O)[C@]24CCCC[C@@H]2[C@H](C3)NCC4)CC1 [Example 24, (+)-3-Hydroxy-2-(4-methylpiperazin-1-yl)morphinan 2TFA salt] | 14.4 µM | 3.1 µM
CCCN(C)c1cc2c(cc1O)[C@]13CCCC[C@@H]1[C@H](C2)NCC3 [Example 102, (+)-3-Hydroxy-2-(methylpropylamino)morphinan TFA salt] | 29.6 µM | 0.548 µM
CC(C)(C)c1cc2c(cc1O)[C@]13CCCC[C@@H]1[C@H](C2)NCC3 [Example 104, (+)-2-tert-Butyl-3-hydroxymorphinan TFA salt] | 10 µM | 1.37 µM
Oc1cc2c(cc1Nc1ccc(Br)cc1)C[C@@H]1NCC[C@]23CCCC[C@H]13 [Example 33, (+)-2-(4-Bromophenylamino)-3-hydroxymorphinan TFA salt] | 1.67 µM | 0.0697 µM
CCCNc1cc2c(cc1O)[C@]13CCCC[C@@H]1[C@H](C2)NCC3 [Example 88, (+)-3-Hydroxy-2-propylaminomorphinan TFA salt] | 37.2 µM | 0.0416 µM
Oc1cc2c(cc1-c1ccc(F)cc1)C[C@@H]1NCC[C@]23CCCC[C@H]13 [Example 77, (+)-2-(4-Fluorophenyl)-3-hydroxymorphinan TFA salt] | 8.3 µM | 3.11 µM
